# Experimental data: US9862748B2, “Peptide compounds and methods of production and use thereof” (priority 2012, dated 2018)
# How the values were obtained:
# [1] = test system: mouse cornea (corneal epithelial abrasion); test: In vivo model of corneal wound healing; settings: treated at 0 and 16 hours; 95-122 10^−5 M; 120-146WH 10^−8 M or 10^−6 M; HB-EGF 250 ng/ml
# [2] = test system: Acinetobacter baumannii ATCC® BAA-747™; type: cell-based; settings: 3.12-25 μM; 60 minutes
# Procedure, shortened: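 Peptides at 25, 12.5, 6.25 and 3.12 μM were incubated with 1×10^6 CFU/ml bacteria at pH 5.5 or 7.2, with tryptone saline as negative control and gentamicin (4 μg/ml) as positive control. Incubation was 60 min for A. baumannii and 180 min for P. aeruginosa. Surviving CFU counted after overnight plating, expressed as log reduction in CFU/ml.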
# [3] = test system: Pseudomonas aeruginosa ATCC® 27853™; type: cell-based; settings: 3.12-25 μM; 180 minutes
# Procedure, shortened: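 P. aeruginosa ATCC 27853 at 1×10^6 CFU/ml incubated 180 min with peptides (25–3.12 μM, pH 5.5 or 7.2; or 150–37.5 μg/ml, pH 5.5) versus tryptone saline; gentamicin 4 μg/ml control. Surviving CFU counted after overnight plating, expressed as log reduction in CFU/ml.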
# swine skin wounds = test: Swine full thickness excisional dermal wound model, wound area; type: in vivo
# Protocol: In this Example, peptide compounds of the presently disclosed and claimed inventive concept(s) were evaluated as to their activity on the dermal wound healing process in a clinically relevant swine full thickness excisional wound model. Three different peptide formulations (Group B, Peptide 95-122 (SEQ ID NO: 26); Group C, Peptide 120-146WH (SEQ ID NO: 31); and Group D, Peptide 120-146QH-5RMP (SEQ ID NO: 33)) were each evaluated at the same concentration (3 mg/ml). Sterile saline served as the control (Group A).
# Full thickness excisional wounds were induced on the dorsum of swine (N=3) using a 1.0 cm biopsy punch. Treatments were administered (0.20 ml) to each wound (N=6 wounds per group), and the wounds were dressed with standard occlusive dressing ([…]™, 3M Corporation, St. Paul, Minn.). Treatments were reapplied daily and dressings changed. Clinical wound healing observations and wound area (2 mm) measurements were performed on days 0, 3, 5, 7, 10, and 14 post-wounding. Wound area (2 mm) data were expressed as percentage (%) of wound healing. Animals were terminated on day 14 with wounds harvested and processed for histological evaluation. […] All peptide formulation treatment groups healed faster with greater rate of closure and re-epithelialization over time, as compared to the saline control (Group A).
# [4] = 3 mg/ml, 0.20 ml per wound, reapplied daily
sequence,measurement,setting,value
LDREANLTSSVTILPLPLQNATVEAGTR (listed as Homo sapiens) [Peptide 95-122],corneal wound healing versus vehicle,[1],promotes corneal wound healing
same,"activity against Acinetobacter at either pH (5.5, 7.2)",[2],not active
same,"activity against Pseudomonas aeruginosa at either pH (5.5, 7.2)",[3],not active
same,Mean Wound Healing (%) Day 0,swine skin wounds; [4],0.0%
same,Mean Wound Healing (%) Day 3,swine skin wounds; [4],28.9%
same,Mean Wound Healing (%) Day 5,swine skin wounds; [4],41.5%
same,Mean Wound Healing (%) Day 7,swine skin wounds; [4],70.8%
same,Mean Wound Healing (%) Day 10,swine skin wounds; [4],99.7%
same,Mean Wound Healing (%) Day 14,swine skin wounds; [4],100.0%
same,dermal wound healing,"swine skin wounds; topical 3 mg/ml over 14 days, vs saline",accelerate dermal wound healing
